Target: T1, TRET1 (Polypedilum vanderplanki, UniProt A5LGM7)
T1 construct: ORF of either Tret1, DmTret1, AmTret1, AgTret1 or BmTret1 cDNA was amplified with PCR; expressed in transfected cells; host or cells: Xenopus laevis oocytes injected with cRNA
T1 sequence (A5LGM7 1-504): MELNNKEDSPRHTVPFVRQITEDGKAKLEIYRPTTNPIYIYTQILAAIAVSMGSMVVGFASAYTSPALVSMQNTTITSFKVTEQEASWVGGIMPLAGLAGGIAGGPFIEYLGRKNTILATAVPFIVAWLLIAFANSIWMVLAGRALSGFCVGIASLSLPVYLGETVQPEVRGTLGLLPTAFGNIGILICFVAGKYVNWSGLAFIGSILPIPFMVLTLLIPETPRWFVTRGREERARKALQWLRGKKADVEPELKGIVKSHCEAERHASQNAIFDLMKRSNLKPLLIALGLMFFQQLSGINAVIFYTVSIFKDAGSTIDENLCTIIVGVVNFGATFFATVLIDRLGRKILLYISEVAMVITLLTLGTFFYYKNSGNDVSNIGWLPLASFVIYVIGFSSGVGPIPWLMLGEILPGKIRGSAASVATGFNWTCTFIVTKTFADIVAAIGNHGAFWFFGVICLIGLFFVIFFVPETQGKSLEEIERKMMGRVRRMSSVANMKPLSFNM
Assay type: cell-based
From the text: The capped RNA (cRNA) expression vector pTRET1-XbG-ev1 series was constructed as follows: ORF of either Tret1, DmTret1, AmTret1, AgTret1 or BmTret1 cDNA was amplified with PCR using specific primers containing Bgl II site at the 5′-end on each primer, respectively. The PCR products were digested with the restriction enzymes, and cloned into the site of Bgl II in pXbG-ev1 (Preston, G. M., et al. (1992) Science 256, 385-387). ORF of hGLUT1 cDNA was obtained by digestion of pSPMM1 with BamH I, and then subcloned into the site of Bgl II in pXbG-2. Template DNAs for cRNA synthesis were amplified from the corresponding cRNA expression vectors with a high fidelity DNA polymerase, KOD—Plus—, (TOYOBO). The cRNAs were synthesized with mMESSAGE mMACHINE T7 Kit (Ambion), and then purified with RNeasy MiniElute Cleanup kit (Qiagen).
Stage V or VI oocytes were extirpated from X. laevis females, and digested ovarian lobes with 0.2% (w/v) collagenase, type II (Sigma-Aldrich) in Ca^2+-free modified Barth's saline (MBS; 88.0 mM NaCl, 1.0 mM KCl, 2.4 mM NaHCO3, 15.0 mM Tris-Cl, 0.82 mM MgSO4, […] penicillin and streptomycin, pH7.6) at 15° C. for 3 h. The oocytes were microinjected with 40 nl of either 1 ng/nl of the TRET1::AcGFP1 or AcGFP1 cRNA, or nuclease-free water (Invitrogen) as a negative control. In order to express TRET1, the oocytes were incubated in MBS (containing 0.41 mM CaCl2) for 3-4 days after injection at 15° C. Fluorescence images of the oocytes injected with the cRNA were observed and analyzed with a fluorescence microscope BZ-8000 (KEYENCE).
All uptake assays for zero-trans trehalose and/or other sugars were performed using Xenopus oocytes expressing TRET1 at 15° C. in MBS containing appropriate concentrations of sugars. Sugar concentrations were determined using HPLC (Watanabe, M., et al. (2002) J Exp Biol 205, 2799-2802). All assays were carried out in triplicate.
Xenopus oocytes expressing either TRET1 or hGLUT1 were incubated in 105 mM of various sugars for 3 h. Tre: trehalose; Mal: maltose; Suc: sucrose; Lac: lactose; MAG: methyl-a-glucopyranoside; and 2-DOG: 2-deoxy-glucose (FIG. 3B).
In General, transporters contain two sub-classes: facilitated transporters and secondary active transporters. Activities of secondary active transporters are dependent on the electrochemical membrane potential resulting from the distribution of ions such as H^+. For example, proton-dependent MAL11/AGT1 can act only under acidic extracellular conditions (Stambuk, B. U., et al. (1996) Eur J Biochem 237, 876-881). On the other hand, facilitated transporters function independently of the electrochemical membrane potential. Xenopus oocytes expressing TRET1 were incubated in 105 mM trehalose at pH 4.2 and 7.6 for 3 h.
Xenopus oocytes expressing TRET1 were incubated in 105 mM trehalose with either control buffer (Mock; 0.1% acetone), or buffer containing various concentrations of nigericin (Na^+, K^+-ionophore), valinomycin (K^+-ionophore) or CCCP (H^+-ionophore, uncoupler) for 3 h.
In general, facilitated transporters enable their substrates to flow across membranes down concentration gradients. Xenopus oocytes expressing TRET1 were first incubated in 105 mM trehalose for 3 h, and then transferred into trehalose-free buffer and trehalose content was examined over time.
Xenopus oocytes expressing TRET1 were incubated in various concentrations of trehalose for 15 min. Uptake data were fitted to the Michaelis-Menten and Eadie-Hofstee (inset of FIG. 9) equations.

OC[C@H]1O[C@H](O[C@H]2O[C@H](CO)[C@@H](O)[C@H](O)[C@H]2O)[C@H](O)[C@@H](O)[C@@H]1O [trehalose]
time course of trehalose uptake into oocytes expressing TRET1 (105 mM trehalose): increased linearly for at least 6 h | direction of trehalose transport after reversal of concentration gradient (105 mM trehalose 3 h, then trehalose-free buffer): shifted from an inward to outward direction | pH-dependency of TRET1 trehalose transport (105 mM trehalose, pH 4.2 and 7.6, 3 h): acted over a wide extracellular pH range | Vmax of TRET1 for trehalose (Xenopus oocytes expressing TRET1): 7.84±0.77 nmol/15 min/oocyte
